Converted amounts (≈) assume the structure as drawn. Like-named read-outs stand apart in the source and are kept apart here.
What was measured:
[1] = molecular target: T1, SpsB (Staphylococcus aureus signal peptidase) (Staphylococcus aureus, UniProt P0A070); assay: cell-based; type: biochemical; conditions: SpsB IC50, whole-cell S. aureus (USA300 background, overexpressing SpsB) as SpsB source; fluorogenic peptide substrate, kinetic read 30 min
T1 construct: This assay uses a suspension of Staphylococcus aureus cells as a source of SpsB instead of recombinant SpsB protein; endogenous in cells; host or cells: S. aureus, USA300 background, overexpressing SpsB (whole-cell suspension from frozen pellets)
T1 sequence (P0A070 whole entry): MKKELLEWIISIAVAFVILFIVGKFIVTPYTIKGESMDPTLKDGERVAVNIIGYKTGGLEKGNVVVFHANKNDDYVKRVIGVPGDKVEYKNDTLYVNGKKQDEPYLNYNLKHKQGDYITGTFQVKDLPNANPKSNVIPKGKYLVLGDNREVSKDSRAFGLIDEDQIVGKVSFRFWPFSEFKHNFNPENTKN
Experimental: A kinetic fluorogenic enzyme activity assay was used to assess inhibition of SpsB (Staphylococcus aureus signal peptidase) activity and IC50s were determined. This assay uses a suspension of Staphylococcus aureus cells as a source of SpsB instead of recombinant SpsB protein.
Cell preparation: Luria broth (LB) was inoculated with S. aureus (USA300 background, overexpressing SpsB) and shaken at 37° C. until an OD600 nm of 1.5-2.0 was reached (˜4 hr). The culture was then diluted to an OD600 nm of 1.0 with LB, aliquoted and centrifuged at 10,000×g for 2 mins. The supernatant was removed and the pellet was resuspended in phosphate buffer (1×PBS, 12.5 mg/L MgCl2, 25 mg/L CaCl2, 0.1% Tween-80) to an OD600 nm of 0.5, then centrifuged again at 10,000x g for 2 mins. The supernatant was removed and the pellets were frozen at −20° C.
Test compounds were prepared in DMSO at a concentration of 10 mg/mL. These compound stocks were diluted into DMSO to a concentration of 25 μg/mL and serial 3-fold dilutions were made in DMSO, for a total of 11 compound concentrations. 20 nL of each compound solution was pre-spotted into a white 384-well plate (50 μL/well polypropylene, Nunc) using acoustic fluid transfer (Echo).
Frozen S. aureus pellets were resuspended in assay buffer (1x PBS, 12.5 mg/L MgCl2, 25 mg/L CaCl2, 0.1% Tween-80) to an OD600 nm of 0.05, then mixed 1:1 (v/v) with 20 μM substrate ((Dabcyl)βAla-KPAKAAE(Edans)) in assay buffer, and this solution was added (20 μL/well) to the 384-well plate that had been pre-spotted with compound. Fluorescence intensity was then immediately read kinetically for 30 minutes with 2 minute read intervals to monitor cleavage of the internally quenched peptide substrate (excitation wavelength=340 nm, emission wavelength=490 nm, Molecular Devices Spectramax M5). Reaction rate (slope) was plotted against inhibitor concentration to derive the IC50.

[2] = tested on: Escherichia coli MC4100 harboring the IMP4213 (E. coli IMP); assay: microbe, parasite or virus in culture; type: cell-based; conditions: Escherichia coli, 22 h, read-out: MIC (μg/mL) E. coli IMP, E. coli MC4100 IMP4213, increased outer-membrane permeability; 35° C., 22 hours
How it was run: (§1)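 Ten-point 2-fold series began at 4 μg/mL in protocol 2 and 0.5 μg/mL in protocol 3, in cation-adjusted MHB plus 0.002% Tween-80. Bacteria added to OD600 0.0005 final and incubated at 35° C for 22 hours per CLSI microdilution.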

[3] = tested on: Methicillin Resistant Staphylococcus aureus strain USA 300, NRS384; assay: Minimum inhibitory concentration, broth micro-dilution (CLSI), S. aureus; type: cell-based; conditions: Staphylococcus aureus, MRSA / NRS 384 / USA300, 22 h, 35° C., 22 hours
How it was run: as §1

[4] = tested on: Escherichia coli ATCC 25922; assay: Minimum inhibitory concentration, broth micro-dilution (CLSI), E. coli; type: cell-based; conditions: Escherichia coli, ATCC25922, 22 h, 35° C., 22 hours
[5] = MRSA USA 300 NRS384, read-out: MIC (μg/mL) S. aureus
[6] = E. coli ATCC 25922, read-out: MIC (μg/mL) E. coli
[7] = read-out: MIC (μg/mL) S. aureus, MRSA USA 300 NRS384
[8] = read-out: MIC (μg/mL) E. coli, E. coli ATCC 25922

| SMILES | IC50 [1] | MIC [2] | MIC [3, 5] | MIC [4, 6] | MIC [3, 7] | MIC [4, 8] |
| --- | --- | --- | --- | --- | --- | --- |
| CCCCCCCCC(=O)N[C@@H](CCN)C(=O)N(C)[C@@H]1C(=O)N[C@@H](C)C(=O)N[C@H](C(=O)NCC#N)Cc2ccc(OCCN)c(c2)-c2cc1ccc2OCCN [Compound 106] | 1.7 nM | 0.13 µg/mL (≈ 0.167 µM) | 0.38 µg/mL (≈ 0.488 µM) | 24 µg/mL (≈ 30.8 µM) |  |  |
| CCCCCCCC(=O)N[C@@H](CCN)C(=O)N(C)[C@@H]1C(=O)N[C@@H](C)C(=O)N[C@H](C(=O)NCC#N)Cc2ccc(OCCN)c(c2)-c2cc1ccc2OCCN [Compound 107] | 4 nM | 0.38 µg/mL (≈ 0.497 µM) | 1 µg/mL (≈ 1.31 µM) | 32 µg/mL (≈ 41.9 µM) |  |  |
| C[C@@H]1NC(=O)[C@@H](N(C)C(=O)[C@H](CCCCN)NC(=O)c2ccc(-c3ccc(C(C)(C)C)cc3)cc2)c2ccc(OCCN)c(c2)-c2cc(ccc2OCCN)C[C@@H](C(=O)NCC#N)NC1=O [Compound 108] | 1.2 nM | 0.047 µg/mL (≈ 0.0521 µM) |  |  | 0.063 µg/mL (≈ 0.0698 µM) | 0.5 µg/mL (≈ 0.554 µM) |
| COc1ccc(-c2ccc(C(=O)N[C@@H](CCCCN)C(=O)N(C)[C@@H]3C(=O)N[C@@H](C)C(=O)N[C@H](C(=O)NCC#N)Cc4ccc(OCCN)c(c4)-c4cc3ccc4OCCN)cc2)cc1OC [Compound 109] | 7.5 nM | 1 µg/mL (≈ 1.1 µM) | 2 µg/mL (≈ 2.21 µM) | > 64 µg/mL |  |  |
| C[C@@H]1NC(=O)[C@@H](N(C)C(=O)[C@H](CCCCN)NC(=O)c2ccc(/C=C/c3ccccc3)cc2)c2ccc(OCCN)c(c2)-c2cc(ccc2OCCN)C[C@@H](C(=O)NCC#N)NC1=O [Compound 110] | 0.96 nM | 0.063 µg/mL (≈ 0.0722 µM) |  |  | 0.19 µg/mL (≈ 0.218 µM) | 8 µg/mL (≈ 9.17 µM) |
| C[C@@H]1NC(=O)[C@@H](N(C)C(=O)[C@H](CCCCN)NC(=O)c2ccc(-c3cc(Cl)cc(Cl)c3)cc2)c2ccc(OCCN)c(c2)-c2cc(ccc2OCCN)C[C@@H](C(=O)NCC#N)NC1=O [Compound 111] | 1 nM | 0.13 µg/mL (≈ 0.142 µM) |  |  | 0.13 µg/mL (≈ 0.142 µM) | 8 µg/mL (≈ 8.74 µM) |
| C[C@@H]1NC(=O)[C@@H](N(C)C(=O)[C@H](CCCCN)NC(=O)c2ccc(-c3ccc(C(F)(F)F)cc3)cc2)c2ccc(OCCN)c(c2)-c2cc(ccc2OCCN)C[C@@H](C(=O)NCC#N)NC1=O [Compound 112] | 0.77 nM | 0.13 µg/mL (≈ 0.142 µM) |  |  | 0.13 µg/mL (≈ 0.142 µM) | 8 µg/mL (≈ 8.75 µM) |
| C[C@@H]1NC(=O)[C@@H](N(C)C(=O)[C@H](CCCCN)NC(=O)c2cccc(-c3ccc(Cl)cc3)c2)c2ccc(OCCN)c(c2)-c2cc(ccc2OCCN)C[C@@H](C(=O)NCC#N)NC1=O [Compound 113] | 0.51 nM | 0.13 µg/mL (≈ 0.148 µM) |  |  | 0.19 µg/mL (≈ 0.216 µM) | 32 µg/mL (≈ 36.3 µM) |
| C[C@@H]1NC(=O)[C@@H](N(C)C(=O)[C@H](CCCCN)NC(=O)c2ccccc2-c2ccc(Cl)cc2)c2ccc(OCCN)c(c2)-c2cc(ccc2OCCN)C[C@@H](C(=O)NCC#N)NC1=O [Compound 114] | 6.1 nM | 2 µg/mL (≈ 2.27 µM) |  |  | 2 µg/mL (≈ 2.27 µM) | > 64 µg/mL |
| C[C@@H]1NC(=O)[C@@H](N(C)C(=O)[C@H](CCCCN)NC(=O)c2ccc(Oc3ccc(Cl)cc3)cc2)c2ccc(OCCN)c(c2)-c2cc(ccc2OCCN)C[C@@H](C(=O)NCC#N)NC1=O [Compound 116] | 1.3 nM | 0.063 µg/mL (≈ 0.0703 µM) |  |  | 0.13 µg/mL (≈ 0.145 µM) | 12 µg/mL (≈ 13.4 µM) |
| C[C@@H]1NC(=O)[C@@H](N(C)C(=O)[C@H](CCCCN)NC(=O)Cc2ccc(-c3ccc(Cl)cc3)cc2)c2ccc(OCCN)c(c2)-c2cc(ccc2OCCN)C[C@@H](C(=O)NCC#N)NC1=O [Compound 117] | 2 nM | 0.5 µg/mL (≈ 0.559 µM) |  |  | 0.13 µg/mL (≈ 0.145 µM) | > 64 µg/mL |
| C[C@@H]1NC(=O)[C@@H](N(C)C(=O)[C@H](CCCCN)NC(=O)c2ccc(-c3ccc(-c4ccccc4)cc3)cc2)c2ccc(OCCN)c(c2)-c2cc(ccc2OCCN)C[C@@H](C(=O)NCC#N)NC1=O [Compound 118] | 1.4 nM | 0.031 µg/mL (≈ 0.0336 µM) |  |  | 0.063 µg/mL (≈ 0.0683 µM) | 0.75 µg/mL (≈ 0.813 µM) |
